From US10106853B2, “CUL4B as predictive biomarker for cancer treatment” (CORNELL UNIVERSITY, priority 2012, dated 2018) come the findings set out here.

This data set has as its target T1, Top1 (Homo sapiens, UniProt P11387).
T1 construct: CPT-induced TOP1 degradation in breast cancer cell lines; host or cells: human breast cancer cell lines BT474, BT20, MCF-7, MDA-MB-231, T47D, Sk-Br-3 (MCF-10A as control)
T1 sequence (P11387 1-765): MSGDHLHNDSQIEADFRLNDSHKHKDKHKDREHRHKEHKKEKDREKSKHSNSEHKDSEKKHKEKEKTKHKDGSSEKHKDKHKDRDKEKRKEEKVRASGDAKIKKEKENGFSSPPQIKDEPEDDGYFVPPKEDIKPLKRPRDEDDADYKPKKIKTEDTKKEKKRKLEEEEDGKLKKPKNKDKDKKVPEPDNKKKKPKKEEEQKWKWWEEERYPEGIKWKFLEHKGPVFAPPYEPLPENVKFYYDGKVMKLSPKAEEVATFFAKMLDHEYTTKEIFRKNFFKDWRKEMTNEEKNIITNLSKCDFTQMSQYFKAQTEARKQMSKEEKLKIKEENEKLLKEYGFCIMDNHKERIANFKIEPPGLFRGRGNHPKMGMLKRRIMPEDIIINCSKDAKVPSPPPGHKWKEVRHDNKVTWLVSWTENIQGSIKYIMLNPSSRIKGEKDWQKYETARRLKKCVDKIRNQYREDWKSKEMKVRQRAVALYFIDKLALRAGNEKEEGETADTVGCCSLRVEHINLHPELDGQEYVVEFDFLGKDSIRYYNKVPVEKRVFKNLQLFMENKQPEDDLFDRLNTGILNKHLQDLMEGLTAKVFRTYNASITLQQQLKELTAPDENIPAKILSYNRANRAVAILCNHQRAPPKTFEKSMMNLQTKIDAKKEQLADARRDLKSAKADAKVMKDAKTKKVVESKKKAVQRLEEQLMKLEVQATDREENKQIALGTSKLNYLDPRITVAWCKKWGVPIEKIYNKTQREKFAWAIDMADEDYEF
As to the kind of experiment: CPT-induced TOP1 down regulation assay (immunoblotting). The class given is cell-based. As for the experimental part: FIG. 1. CPT-induced TOP1 degradation in breast cancer cell lines. A) Expression of endogenous CUL4A and 4B in breast cancer cell lines. Total cell lysates were prepared from the indicated breast cancer cell lines and subjected to SDS PAGE and immunoblotting with antibodies against CUL4A, 4B and α-tubulin. The non-cancerous MCF-10A cell line was used as a control for comparison. B) CPT-induced TOP1 degradation in breast cancer cell lines. Cells were treated with 12.5 μM CPT or 1% DMSO for 4 hours, replenished with CPT-free fresh medium and incubated at 37° C. for 30 minutes to reverse the formation of TOP1 cleavable complex. Cells were then lysed and immunoblotted with the TOP1 and α-tubulin antibodies.
FIG. 2. CUL4B interacted with Top1 and induced Top1 degradation in the presence of CPT. A) Knockdown of CUL4B impaired CPT-induced Top1 degradation. BT474 cells were infected with lentiviral shCUL4B, shCUL4A or control non-targeting shRNA, and selected for stable CUL4B^k/d or CUL4A^k/d cells upon treatment with puromycin. Following treatment with CPT (50 μM) for 1 hour, cells were replenished with CPT-free fresh medium and incubated at 37° C. for 30 minutes. Top1 degradation was assessed by immunoblotting with an anti-Top1 antibody. Levels of α-tubulin were measured as a loading control. B) Association of CUL4B with Top1 following CPT treatment. BT474 cells were treated with proteosome inhibitor MG132 (15 μM) for 3 hours, and were subjected to crosslinking with 0.2 mM Dithiobis[succinimidyl propionate](DSP) for the last 30 min at room temperature. Cell lysates were prepared, and immunoprecipitated with the anti-Top1 or anti-CUL4B antibodies, and then immunoblotted using antibodies against CUL4B or Top1, respectively. IgG immunoprecipitates served as the negative control. C) Knockdown of CUL4B using a second shCUL4B-2 impaired CPT-induced Top1 degradation. BT474 cells were infected with lentiviral shCUL4B-2, shCUL4A-2 or control non-targeting shRNA and selected for stable CUL4B^k/d or CUL4A^k/d cells upon treatment with puromycin. Following treatment with CPT (50 μM) for 1.5 hr, cells were replenished with CPT-free fresh medium and incubated at 37° C. for 30 min. Top1 degradation was assessed by immunoblotting with the anti-Top1 antibody. Levels of α-tubulin were measured as a loading control. D) CUL4B inactivation sensitized BT474 cells to cytotoxic killing by camptothecin. BT474, BT474-CUL4A^k/d or BT474-CUL4B^k/d cells were synchronized with 1 μM nocodazole for 13 hours released in fresh medium, treated with the indicated concentrations of CPT for three days, and subjected to the XTT assay to measure the cytotoxic responses to CPT. […] The bars indicate the S.E. of six independent experiments. Statistical significance in cellular response to CPT between control BT474 cells and CUL4A^k/d or CUL4B^k/d cells were assessed by a two-tailed unpaired student t-test (***: p<0.001). The same results were obtained with a second lentiviral shRNA for CUL4A and CUL4B, as well as in T47D breast cancer cells. E, F) Knockdown of CUL4B increased the sensitivity of T47D cells to camptothecin. […] Statistical significance in cellular response to camptothecin between control cells and CUL4A^k/d or CUL4B^k/d BT474 cells are assessed by student's t-test.
CPT-induced Top1 degradation was monitored by immunoblotting of the alkaline lysates. […]
(In western blotting, separated proteins are transferred to a membrane and probed.)

Regarding `CC[C@@]1(O)C(=O)OCc2c1cc1n(c2=O)Cc2cc3ccccc3nc2-1` [CPT, (S)-4-ethyl-4-hydroxy-1H-pyrano[3′,4′:6,7]indolizino[1,2-b]quinoline-3,14-(4H, 12H)-dione], the “CPT-induced Top1 degradation compared to control (shCtrl)” value (CUL4A knockdown BT474 cells, CPT 50 μM, 1 hour) was “no effect”. Besides, where the note is “CUL4B-silenced (CUL4B k/d) BT474 cells, CPT 50 μM, 1 hour”, the “CPT-induced Top1 degradation” value is listed as “abolished”. The “Top1 degradation following treatment with CPT” value (breast cancer cells exhibiting elevated levels of CUL4B expression, 12.5 μM CPT, 4 hours) is listed as “eliminated or markedly destroyed Top1”.
As to “shCUL4B: lentiviral shRNA CUL4B sequence purchased from Sigma Aldrich, reduces CUL4B expression (CCGGGCAGAATTTAAAGAGGGTAAACTCGAGTTTACCCTCTTTAAATTCTGCTTTTT)”, the “Effect of shRNA knockdown on CPT-induced Top1 degradation” value (BT474 cells, lentiviral shRNA, CPT 50 μM, 1 to 1.5 hr) was “impaired”.
